Reference: ChEMBL document CHEMBL1201862, “PubChem BioAssay data set” (2004)
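Values below derive from 48-hour exposures of cells grown in 96-well plates, with endpoints linearly interpolated between the two concentrations bracketing the appropriate inhibition level. The concentration for 50% growth inhibition is given as GI50.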 Activity calls are given as the source filed them. No stated cut-off is given here; in the data, active = GI50 up to about 1.1 µM and inactive = higher.

Legend:
Experiment in all cases: DTP human tumour cell line panel, 48 h
[1] = tested on: NCI-H460
[2] = tested on: SF-295
[3] = tested on: A498
[4] = tested on: SK-MEL-28
[5] = tested on: IGROV-1
[6] = tested on: OVCAR-4
[7] = tested on: TK-10
[8] = tested on: KM12
[9] = tested on: NCI-H522
[10] = tested on: RXF 393
[11] = tested on: NCI-H226
[12] = tested on: MCF7
[13] = tested on: HCC 2998
[14] = tested on: DU-145
[15] = tested on: SNB-75
[16] = tested on: HOP-62
[17] = tested on: SR
[18] = tested on: BT-549
[19] = tested on: UACC-62
[20] = tested on: ACHN
[21] = tested on: U-251
[22] = tested on: LOX IMVI
[23] = tested on: M14
[24] = tested on: SF-268
[25] = tested on: MDA-MB-435
[26] = tested on: 786-0
[27] = tested on: SN12C
[28] = tested on: SK-MEL-5
[29] = tested on: HL-60
[30] = tested on: SNB-19
[31] = tested on: MDA-N
[32] = tested on: PC-3
[33] = tested on: MDA-MB-231
[34] = tested on: RPMI-8226
[35] = tested on: HCT-15
[36] = tested on: HCT-116
[37] = tested on: SF-539
[38] = tested on: SK-OV-3
[39] = tested on: EKVX
[40] = tested on: CCRF-CEM
[41] = tested on: T47D
[42] = tested on: HOP-92
[43] = tested on: UACC-257
[44] = tested on: NCI/ADR-RES
[45] = tested on: OVCAR-8
[46] = tested on: Malme-3M
[47] = tested on: SK-MEL-2
[48] = tested on: NCI-H23
[49] = tested on: CAKI-1
[50] = tested on: MOLT-4
[51] = tested on: COLO 205
[52] = tested on: HT-29
[53] = tested on: OVCAR-3
[54] = tested on: K562
[55] = tested on: OVCAR-5
[56] = tested on: SW-620
[57] = tested on: A549
[58] = tested on: UO-31
[59] = tested on: Hs-578T

CCOC(=O)C1(Cc2ccccc2)CCN(C(=O)c2ccccc2)C2C1C2(Cl)Cl (centres undefined)
GI50 [1]: 16.8 µM (inactive) | GI50 [2]: 23.3 µM (inactive) | GI50 [3]: 18.8 µM (inactive) | GI50 [4]: 21.1 µM (inactive) | GI50 [5]: 31.2 µM (inactive) | GI50 [6]: 26 µM (inactive) | GI50 [7]: 24.4 µM (inactive) | GI50 [8]: 29.9 µM (inactive) | GI50 [9]: 18.1 µM (inactive) | GI50 [10]: 16 µM (inactive) | GI50 [11]: 23.6 µM (inactive) | GI50 [12]: 25.4 µM (inactive) | GI50 [13]: 14.5 µM (inactive) | GI50 [14]: 33 µM (inactive) | GI50 [15]: 23.1 µM (inactive) | GI50 [16]: 27.6 µM (inactive) | GI50 [17]: 23.6 µM (inactive) | GI50 [18]: 25.2 µM (inactive) | GI50 [19]: 12 µM (inactive) | GI50 [20]: 21.6 µM (inactive) | GI50 [21]: 15.9 µM (inactive) | GI50 [22]: 18.4 µM (inactive) | GI50 [23]: 18.3 µM (inactive) | GI50 [24]: 29 µM (inactive) | GI50 [25]: 21.1 µM (inactive) | GI50 [26]: 20.1 µM (inactive) | GI50 [27]: 16.4 µM (inactive) | GI50 [28]: 15.9 µM (inactive) | GI50 [29]: 12.2 µM (inactive) | GI50 [30]: 36.1 µM (inactive) | GI50 [31]: 17.9 µM (inactive) | GI50 [32]: 16.7 µM (inactive) | GI50 [33]: 17.1 µM (inactive) | GI50 [34]: 13.2 µM (inactive) | GI50 [35]: 27.8 µM | GI50 [36]: 15 µM (inactive) | GI50 [37]: 18 µM (inactive) | GI50 [38]: 28.6 µM (inactive) | GI50 [39]: 19.3 µM (inactive) | GI50 [40]: 20 µM (inactive) | GI50 [41]: 14.1 µM (inactive) | GI50 [42]: 26.6 µM (inactive) | GI50 [43]: 15.2 µM (inactive) | GI50 [44]: 21.3 µM (inactive) | GI50 [45]: 28.3 µM (inactive) | GI50 [46]: 21.4 µM (inactive) | GI50 [47]: 15.6 µM (inactive) | GI50 [48]: 23.5 µM (inactive) | GI50 [49]: 24.3 µM (inactive) | GI50 [50]: 20 µM (inactive) | GI50 [51]: 18.3 µM (inactive) | GI50 [52]: 16.6 µM (inactive) | GI50 [53]: 18.3 µM (inactive) | GI50 [54]: 27 µM (inactive) | GI50 [55]: 29.9 µM (inactive) | GI50 [56]: 25.7 µM (inactive) | GI50 [57]: 30.1 µM (inactive) | GI50 [58]: 28.4 µM (inactive) | GI50 [59]: 26.7 µM (inactive)
